From PubChem BioAssay AID192 (DTP/NCI, 2004)
Several values for one entry are separate records, joined by “and”; a condition that tells them apart may be missing. Equal values may be shown once. Inconclusive results and toxic doses are left out.

Test system: BDF1 mice, B16 melanoma ip, median survival T/C
Assay: NCI In Vivo Anticancer Drug Screen. Data for tumor model B16 Melanoma (intraperitoneal) in B6D2F1 (BDF1) mice
Conditions: endpoint: median survival time, higher = longer survival
Summary of the method: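 Antitumor activity is assessed in mice bearing a transplanted tumor, with survival or tumor size compared against vehicle-dosed controls and expressed as T/C.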

[1] = dose: 1.56 mg/kg/injection, schedule: Q01DX009 (ip), vehicle: saline with Tween-80
[2] = dose: 3.12 mg/kg/injection, schedule: Q01DX009 (ip), vehicle: saline with Tween-80
[3] = dose: 6.25 mg/kg/injection, schedule: Q01DX009 (ip), vehicle: saline
[4] = dose: 12.5 mg/kg/injection, schedule: Q01DX009 (ip), vehicle: saline
[5] = dose: 25.0 mg/kg/injection, schedule: Q01DX009 (ip), vehicle: saline
[6] = dose: 0.25 mg/kg/injection, schedule: Q01DX009 (ip), vehicle: saline
[7] = dose: 0.5 mg/kg/injection, schedule: Q01DX009 (ip), vehicle: saline
[8] = dose: 6.25 mg/kg/injection, schedule: Q01DX009 (ip), vehicle: saline with Tween-80
[9] = dose: 12.5 mg/kg/injection, schedule: Q01DX009 (ip), vehicle: saline with Tween-80
[10] = dose: 25.0 mg/kg/injection, schedule: Q01DX009 (ip), vehicle: saline with Tween-80
[11] = dose: 50.0 mg/kg/injection, schedule: Q01DX009 (ip), vehicle: saline with Tween-80
[12] = dose: 50.0 mg/kg/injection, schedule: Q01DX009 (ip), vehicle: Klucel (hydroxypropylcellulose) (HPC)
[13] = dose: 0.78 mg/kg/injection, schedule: Q01DX009 (ip), vehicle: saline
[14] = dose: 1.0 mg/kg/injection, schedule: Q01DX009 (ip), vehicle: saline
[15] = dose: 1.56 mg/kg/injection, schedule: Q01DX009 (ip), vehicle: saline
[16] = dose: 2.0 mg/kg/injection, schedule: Q01DX009 (ip), vehicle: saline
[17] = dose: 3.12 mg/kg/injection, schedule: Q01DX009 (ip), vehicle: saline
[18] = dose: 4.0 mg/kg/injection, schedule: Q01DX009 (ip), vehicle: saline
[19] = dose: 25.0 mg/kg/injection, schedule: Q01DX009 (ip), vehicle: Klucel (hydroxypropylcellulose) (HPC)
[20] = dose: 1.56 mg/kg/injection, schedule: Q01DX009 (ip), vehicle: Klucel (hydroxypropylcellulose) (HPC)
[21] = dose: 12.5 mg/kg/injection, schedule: Q01DX009 (ip), vehicle: Klucel (hydroxypropylcellulose) (HPC)
[22] = dose: 100.0 mg/kg/injection, schedule: Q01DX009 (ip), vehicle: saline with Tween-80
[23] = dose: 200.0 mg/kg/injection, schedule: Q01DX009 (ip), vehicle: saline with Tween-80

NC(=O)/C=C/C(=O)c1c(Cl)cccc1Cl
T/C (dose: 0.78 mg/kg/injection, schedule: Q01DX009 (ip), vehicle: saline with Tween-80): 103 % of control | T/C [1]: 106 % of control | T/C [2]: 112 % of control

CN(C)CC(C)(C)CN1c2ccccc2Sc2ccccc21
T/C [3]: 117 % of control | T/C [4]: 105 % of control | T/C [5]: 105 % of control

CCCCC(CC)C1OC(=O)C(C)O1 (centres undefined)
T/C (dose: 100.0 mg/kg/injection, schedule: Q04DX003 (ip), vehicle: Klucel (hydroxypropylcellulose) (HPC)): 98 % of control | T/C (dose: 200.0 mg/kg/injection, schedule: Q04DX003 (ip), vehicle: Klucel (hydroxypropylcellulose) (HPC)): 100 % of control

CCOC(=N)c1cn(C2OC(CO)C(O)C2O)c2ncnc(N)c12 (centres undefined)
T/C [6]: 100 % of control | T/C [7]: 105 % of control

CCOC(=O)c1ccc(Nc2sc(C(=O)c3ccc(Br)cc3)c(N)c2C#N)cc1
T/C [8]: 92 % of control | T/C [9]: 87 % of control | T/C [10]: 88 % of control | T/C [11]: 86 % of control

CS(=O)(=O)[O-].CS(=O)(=O)[O-].NC1CCCCC1N.[Pt+4] (centres undefined)
T/C (dose: 0.62 mg/kg/injection, schedule: Q01DX009 (ip), vehicle: other): 124 % of control | T/C (dose: 1.25 mg/kg/injection, schedule: Q01DX009 (ip), vehicle: other): 159 % of control

CSc1nc(=O)[nH]nc1SCc1ccccc1
T/C [12]: 98 % of control | T/C (dose: 100.0 mg/kg/injection, schedule: Q01DX009 (ip), vehicle: Klucel (hydroxypropylcellulose) (HPC)): 105 % of control | T/C (dose: 200.0 mg/kg/injection, schedule: Q01DX009 (ip), vehicle: Klucel (hydroxypropylcellulose) (HPC)): 98 % of control | T/C (dose: 400.0 mg/kg/injection, schedule: Q01DX009 (ip), vehicle: Klucel (hydroxypropylcellulose) (HPC)): 110 % of control

CCCCCC(O)C1C(=O)OC(C)C(O)/C=C/C=C/C=C/C=C/C=C(\C)C(O)C(O)C(O)CC(O)CC(O)CC(O)CC(O)CC1O (centres undefined)
T/C [13]: 124 % of control | T/C [14]: 116 % of control | T/C [15]: 119 % of control | T/C (dose: 1.78 mg/kg/injection, schedule: Q01DX009 (ip), vehicle: saline): 122 % of control | T/C [16]: 123 % of control | T/C [17]: 103 % of control | T/C [18]: 154 % of control

C1CN(P2(N3CC3)=NP(N3CC3)(N3CC3)=NP(N3CC3)(N3CC3)=N2)CCO1 (centres undefined)
T/C [6]: 101 % of control | T/C [7]: 117 % of control | T/C [14]: 117 % of control | T/C (dose: 1.0 mg/kg/injection, schedule: Q02DX009 (ip), vehicle: saline): 98 % of control and 104 % of control | T/C [16]: 120 % of control | T/C (dose: 2.0 mg/kg/injection, schedule: Q02DX009 (ip), vehicle: saline): 98 % of control and 121 % of control | T/C (dose: 3.13 mg/kg/injection, schedule: Q01DX009 (ip), vehicle: saline): 111 % of control and 112 % of control | T/C (dose: 3.13 mg/kg/injection, schedule: Q02DX009 (ip), vehicle: saline): 110 % of control and 115 % of control | T/C [18]: 116 % of control | T/C (dose: 4.0 mg/kg/injection, schedule: Q02DX009 (ip), vehicle: saline): 106 % of control and 122 % of control | T/C (dose: 6.25 mg/kg/injection, schedule: Q02DX009 (ip), vehicle: saline): 93 % of control | T/C (dose: 8.0 mg/kg/injection, schedule: Q02DX009 (ip), vehicle: saline): 108 % of control | T/C (dose: 12.5 mg/kg/injection, schedule: Q02DX009 (ip), vehicle: saline): 154 % of control and 156 % of control | T/C (dose: 16.0 mg/kg/injection, schedule: Q02DX009 (ip), vehicle: saline): 151 % of control and 171 % of control | T/C (dose: 25.0 mg/kg/injection, schedule: Q02DX009 (ip), vehicle: saline): 164 % of control and 186 % of control and 200 % of control

CC(=O)C(Cl)C(=O)c1c(C)[nH]n(-c2ccccc2)c1=O (centres undefined)
T/C [19]: 108 % of control | T/C [12]: 98 % of control

N#Cc1ccc(C(=O)C=C(C(F)(F)F)C(F)(F)F)cc1
T/C [1]: 99 % of control | T/C [2]: 100 % of control | T/C [8]: 99 % of control | T/C [9]: 93 % of control

c1ccc(CC[P+](c2ccccc2)(c2ccccc2)c2ccccc2)cc1
T/C (dose: 0.78 mg/kg/injection, schedule: Q01DX009 (ip), vehicle: Klucel (hydroxypropylcellulose) (HPC)): 92 % of control | T/C [20]: 103 % of control | T/C (dose: 3.13 mg/kg/injection, schedule: Q01DX009 (ip), vehicle: Klucel (hydroxypropylcellulose) (HPC)): 92 % of control

CC1CN=C(c2ccc(NC(=O)c3ccc(C(=O)Nc4ccc(C5=NCC(C)N5)cc4)cc3)cc2)N1 (centres undefined)
T/C [21]: 118 % of control | T/C [19]: 107 % of control

CNC(=S)N(C1CCCCC1)C1CCCCC1
T/C [11]: 101 % of control | T/C [22]: 95 % of control | T/C [23]: 98 % of control

N=C(N)Sc1cc(O)ccc1O
T/C (dose: 50.0 mg/kg/injection, schedule: Q01DX009 (ip), vehicle: saline): 105 % of control | T/C (dose: 100.0 mg/kg/injection, schedule: Q01DX009 (ip), vehicle: saline): 94 % of control | T/C (dose: 200.0 mg/kg/injection, schedule: Q01DX009 (ip), vehicle: saline): 91 % of control

OCCN1CCN(CCCN2c3ccccc3Sc3ccc(C(F)(F)F)cc32)CC1
T/C (dose: 0.04 mg/kg/injection, schedule: Q01DX009 (ip), vehicle: saline): 91 % of control | T/C (dose: 0.09 mg/kg/injection, schedule: Q01DX009 (ip), vehicle: saline): 90 % of control and 106 % of control | T/C (dose: 0.19 mg/kg/injection, schedule: Q01DX009 (ip), vehicle: saline): 102 % of control and 93 % of control | T/C (dose: 0.39 mg/kg/injection, schedule: Q01DX009 (ip), vehicle: saline): 103 % of control and 109 % of control | T/C [13]: 99 % of control and 91 % of control | T/C [15]: 97 % of control

CC12CCC(OC3OC(CO)C(OC4OC(CO)C(O)C(O)C4O)C(O)C3O)CC1CCC1C2CCC2(C)C(C3=CC(=O)OC3)CCC12O (centres undefined)
T/C (dose: 6.0 mg/kg/injection, schedule: Q01DX009 (ip), vehicle: saline): 102 % of control | T/C (dose: 12.0 mg/kg/injection, schedule: Q01DX009 (ip), vehicle: saline): 114 % of control | T/C (dose: 24.0 mg/kg/injection, schedule: Q01DX009 (ip), vehicle: saline): 102 % of control | T/C (dose: 48.0 mg/kg/injection, schedule: Q01DX009 (ip), vehicle: saline): 92 % of control

O=[N+]([O-])c1ccc(NCCO)c([N+](=O)[O-])c1
T/C [11]: 100 % of control | T/C [22]: 100 % of control | T/C (dose: 100.0 mg/kg/injection, schedule: Q04DX003 (ip), vehicle: saline with Tween-80): 94 % of control | T/C [23]: 92 % of control | T/C (dose: 200.0 mg/kg/injection, schedule: Q04DX003 (ip), vehicle: saline with Tween-80): 89 % of control

CCCCCC/C=C/[N+]([O-])=NC(COC)C(C)O (centres undefined)
T/C (dose: 5.0 mg/kg/injection, schedule: Q01DX009 (ip), vehicle: Klucel (hydroxypropylcellulose) (HPC)): 107 % of control | T/C (dose: 10.0 mg/kg/injection, schedule: Q01DX009 (ip), vehicle: Klucel (hydroxypropylcellulose) (HPC)): 105 % of control

COC(=O)C(C#N)=C(C)C
T/C (dose: 10.0 mg/kg/injection, schedule: Q01DX009 (ip), vehicle: saline with Tween-80): 100 % of control | T/C (dose: 20.0 mg/kg/injection, schedule: Q01DX009 (ip), vehicle: saline with Tween-80): 98 % of control | T/C (dose: 40.0 mg/kg/injection, schedule: Q01DX009 (ip), vehicle: saline with Tween-80): 94 % of control

O=C1C=C(C2CCCCC2)C(=O)c2ccccc21
T/C [9]: 106 % of control | T/C [10]: 101 % of control | T/C [11]: 92 % of control | T/C [22]: 92 % of control

O=C(NC(Cc1ccccc1)C(=O)O)c1ccccc1 (centres undefined)
T/C [11]: 90 % of control | T/C [22]: 96 % of control

CC(CCc1ccccc1)NN (centres undefined)
T/C [17]: 122 % of control | T/C [3]: 112 % of control and 116 % of control | T/C [4]: 113 % of control | T/C [5]: 103 % of control and 112 % of control

CC(C)NNC(C)Cc1ccccc1 (centres undefined)
T/C [20]: 91 % of control | T/C (dose: 3.12 mg/kg/injection, schedule: Q01DX009 (ip), vehicle: Klucel (hydroxypropylcellulose) (HPC)): 86 % of control | T/C (dose: 6.25 mg/kg/injection, schedule: Q01DX009 (ip), vehicle: Klucel (hydroxypropylcellulose) (HPC)): 86 % of control | T/C [21]: 91 % of control | T/C [19]: 97 % of control
